This note sets out measurements from patent publication US5591717A, “Branched apogenic peptide for inducing apoptosis” (priority 1994, dated 1997).

In series [1] the test system is HL60 cells. Kind of series: Augmentation by 1,25-dihydroxy vitamin D3 in HL60 cells, microscopy. The note with it: simultaneous exposure. Format: cell-based, human. As to the method:
At 1 μM, 1,25-dihydroxy vitamin D3 will drive differentiation of HL60 cells into monocytes; overt differentiation requires 72-96 hours. Accordingly, HL60 cell cultures were simultaneously exposed to a subapoptotic dose of 1 μM CSarma VR5-BAP and 0.5 or 1.0 μM 1, 25-dihydroxy vitamin D3. The cultures were then evaluated by inverted phase microscopy of tissue culture plates and by light microscopic examination of Wright-Giemsa stained cytocentrifuge preparations.

Series [2] has as its system HL60 cells. Kind of series: Sodium butyrate or retinoic acid with sub-apoptotic CSarma VR5-BAP in HL60 cells. Type of series: cell-based, human. The note with it: 1 μM agent, 2, 3 and 5 days. As to the method:
At 1 μM sodium butyrate and retinoic acid induce monocytic and granulocytic differentiation in HL60 cells, respectively. Neither the sodium butyrate nor retinoic acid is specifically associated with calcium transport. HL60 cells were simultaneously exposed to such […] dose (1 μM) of CSarma VR5-BAP and to either 1 μM sodium butyrate or 1 μM retinoic acid. Cells were cultured for 5 days and evaluated by inverted phase contrast microscopy and light microscopic examination of Wright-Giemsa-Stained cytrocentrifuge preparation. Samples were taken at 2, 3 and 5 days.

The subject of series [3] is HL60, K562, 3201 and H9 cells. The procedure:
A commonly used anti-apogenic compound is zinc. HL60, K562, 3201 and H9 cells were exposed to 1, 2, 4, 7.9, 15.7, 31.3, 62.5, 125, 250, 500, and 1000 μM zinc sulfate and 6 μM CSarma VR5-BAP. The cells were cultured for 24 and 8 hours.

For a further series, the system named is HL60 cell cultures. Kind of series: Heparin reversal of CSarma VR5-BAP effect in HL60 cells, MTT and INDO-1. Format: cell-based, human. As to the method: HL60 cell cultures were treated with 6 μM CSarma VR5-BAP and 0.3 U/ml, or 3.0 U/ml heparin. Control cell cultures received either no polypeptide or 0.3 U/ml or 3.0 U/ml heparin. Cell growth was determined at 1 and 2 days as assessed by MTT cell proliferation/viability assay. The mobilization of intracellular calcium was assessed by INDO-1 staining and anchored cell fluorescent microscopy.

On to `C=C1/C(=C\C=C2/CCC[C@]3(C)[C@@H]([C@H](C)CCCC(C)(C)O)CC[C@@H]23)C[C@@H](O)C[C@@H]1O` [1,25-dihydroxy vitamin D3, 1,25-dihydroxycholecalciferol], for which the “increase of sensitivity of HL60 cells to CSarma VR5-BAP” value in the series with HL60 cells [1] is “six-fold”. `CC1=C(/C=C/C(C)=C/C=C/C(C)=C/C(=O)O)C(C)(C)CCC1` [retinoic acid]: in the series on HL60 cells [2], the “apoptosis on simultaneous treatment with 1 μM CSarma VR5-BAP” value is “did not cause apoptosis”. On the same count and under the same terms, to `CCCC(=O)[O-].[Na+]` [sodium butyrate] belongs “did not cause apoptosis”. Turning to `O=S(=O)([O-])[O-].[Zn+2]` [zinc sulfate], the “concentration with direct toxicity” value in series [3] was “greater than 31.3 μM”. Further, the “reversal of CSarma VR5-BAP induced apoptosis” value in series [3] (1 to 1000 μM zinc sulfate with 6 μM CSarma VR5-BAP) was “failed to reverse”. As to heparin, the “mobilization of intracellular calcium” value in the series with HL60 cell cultures (INDO-1 staining) is “prevents mobilization of intracellular calcium”. The “concentration inhibiting the growth suppression of 6 μM CSarma VR5-BAP” value with HL60 cell cultures (MTT, 1 and 2 days) is on record as “greater than or equal to 0.3 U/ml”.
